We go through 1 compound from article PMC3004370, “PI3Kα Inhibitors That Inhibit Metastasis” (Oncotarget, 2010).

By IC50 is commonly meant the concentration at which inhibition is half-maximal. A low value points to higher potency.

Assay [1] deals with Intraspleenic-injected HCT116 liver and lung metastases. Put plainly: Intraspleenic tumor model (metastasis). It counts as in vivo, mice. Particulars: 150 mg/kg IP daily, three weeks. As to the method:
Intraspleenic-injected HCT116 liver and lung metastases in NOD.Cg-Prkdcscid Il2rgtm1Wjl/SzJ mice (Jackson Laboratory, Bar Harbor, ME, USA) were generated as described in Erikson et. al.. J-series compounds were solubilized in 1:1 DMSO/Cremophor EL (Sigma-Aldrich) and diluted 2.3-fold in water to a final concentration of 7.5 mg/ml. 400 μl of this formulation (150 mg/kg) was injected intraperitoneally (IP) once a day for three weeks, beginning the third day post-surgery. Mice were sacrificed after the treatment and the liver, lungs, and spleen sampled. DNA was extracted from organs with the DNeasy Blood & Tissue Kit (Qiagen). The qPCR assay used for quantification of human DNA in mouse organs has been described. All mouse protocols were designed in accordance with the NIH Guide for the Care and Use of Laboratory Animals and approved by the Institutional Animal Care and Use Committee.

The target of a further assay is T1, p110α (Homo sapiens, UniProt P42336).
T1 construct: His-tag; made in house; host or cells: Sf9 insect cells (baculovirus)
T1 sequence (P42336 whole entry): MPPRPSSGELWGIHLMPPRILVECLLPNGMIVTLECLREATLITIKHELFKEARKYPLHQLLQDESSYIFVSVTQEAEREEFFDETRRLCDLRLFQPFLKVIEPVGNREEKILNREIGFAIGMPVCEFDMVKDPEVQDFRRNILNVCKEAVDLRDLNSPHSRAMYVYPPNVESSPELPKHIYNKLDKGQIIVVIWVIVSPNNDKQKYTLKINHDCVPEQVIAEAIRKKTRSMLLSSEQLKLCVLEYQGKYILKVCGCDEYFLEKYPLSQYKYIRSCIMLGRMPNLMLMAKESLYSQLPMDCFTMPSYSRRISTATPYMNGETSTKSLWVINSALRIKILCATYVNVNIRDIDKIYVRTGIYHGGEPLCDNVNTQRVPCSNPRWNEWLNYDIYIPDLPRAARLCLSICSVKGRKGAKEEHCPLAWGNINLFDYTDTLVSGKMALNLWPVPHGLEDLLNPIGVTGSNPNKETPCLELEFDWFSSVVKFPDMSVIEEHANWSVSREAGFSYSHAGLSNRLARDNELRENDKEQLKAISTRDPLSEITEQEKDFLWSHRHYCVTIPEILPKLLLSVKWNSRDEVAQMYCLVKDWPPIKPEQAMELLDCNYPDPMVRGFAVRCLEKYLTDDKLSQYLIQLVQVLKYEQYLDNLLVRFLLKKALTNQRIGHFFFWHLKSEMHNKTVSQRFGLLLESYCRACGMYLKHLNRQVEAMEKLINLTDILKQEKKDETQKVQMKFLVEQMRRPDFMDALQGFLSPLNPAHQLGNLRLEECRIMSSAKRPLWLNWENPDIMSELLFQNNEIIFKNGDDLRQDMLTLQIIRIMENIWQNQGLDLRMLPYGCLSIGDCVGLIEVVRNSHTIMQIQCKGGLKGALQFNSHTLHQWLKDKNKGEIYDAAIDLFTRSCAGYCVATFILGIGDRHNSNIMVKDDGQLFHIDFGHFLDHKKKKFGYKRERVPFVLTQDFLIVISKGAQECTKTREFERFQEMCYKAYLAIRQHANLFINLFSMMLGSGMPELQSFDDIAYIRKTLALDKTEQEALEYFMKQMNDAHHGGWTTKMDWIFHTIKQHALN
T1 sequence (P27986 322-600 partner limits assumed): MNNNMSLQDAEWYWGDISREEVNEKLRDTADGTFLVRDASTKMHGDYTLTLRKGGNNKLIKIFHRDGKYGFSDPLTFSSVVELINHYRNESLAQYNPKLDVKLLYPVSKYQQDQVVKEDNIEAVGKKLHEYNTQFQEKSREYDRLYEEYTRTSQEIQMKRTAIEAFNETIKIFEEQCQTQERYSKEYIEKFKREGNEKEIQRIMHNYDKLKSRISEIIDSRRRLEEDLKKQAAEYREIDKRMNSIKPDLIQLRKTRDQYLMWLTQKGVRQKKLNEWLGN
Put plainly: Biochemical PI3K inhibition assay, p110α. Here is the method: PIK3CD was generously provided by Novartis Pharmaceuticals. […] Sf9 cells were lysed in a buffer containing 50 mM sodium phosphate, pH 8.0, 400 mM NaCl, 5% glycerol, 1% Triton X-100, 10 mM 2-mercaptoethanol, 1 mM orthovanadate, 10 mM imidazole, and sonicated on ice for 1 minute. Proteins were purified by adding Ni-NTA Superflow beads (Qiagen, Valencia, CA, USA) to the lysate and subsequent rolling for 30 min at 4°C. Beads were washed twice with 50 mM phosphate buffer, pH 8.0, 0.5 M NaCl, 50 mM Imidazole, 2 mM DTT and eluted in the same buffer but with 200 mM imidazole. Purified PI3K's were mixed 1:1 with glycerol and stored at -20°C.
J-series inhibitors were dissolved, serial diluted in DMSO and deposited into 96 well plates at a final DMSO concentration of 1%. We used a novel assay to determine their potency and selectivity. […] Reactions were timed after the addition of 10 μM ATP with 40 μCi/ml γ-32P-ATP (PerkinElmer, Waltham, MA, USA) and 2 mM MgCl2 (all final concentrations). The reactions were terminated after two hours by the addition of 2 N HCl and the lipids extracted with 1:1 MetOH/Chloroform. Radio-labeled phosphatidyl-inositol-3-phosphate in the extracted organic fraction was quantified after the addition of Microscint O (PerkinElmer) using a TopCount 96 well plate scintillation counter (PerkinElmer). IC50 concentrations and inhibition curves were calculated using Prism 5 (GraphPad Software, La Jolla, CA).

In a further assay the target is T2, p110β (Homo sapiens, UniProt P42338).
T2 construct: His-tag; made in house; host or cells: Sf9 insect cells (baculovirus)
T2 sequence (P42338 whole entry): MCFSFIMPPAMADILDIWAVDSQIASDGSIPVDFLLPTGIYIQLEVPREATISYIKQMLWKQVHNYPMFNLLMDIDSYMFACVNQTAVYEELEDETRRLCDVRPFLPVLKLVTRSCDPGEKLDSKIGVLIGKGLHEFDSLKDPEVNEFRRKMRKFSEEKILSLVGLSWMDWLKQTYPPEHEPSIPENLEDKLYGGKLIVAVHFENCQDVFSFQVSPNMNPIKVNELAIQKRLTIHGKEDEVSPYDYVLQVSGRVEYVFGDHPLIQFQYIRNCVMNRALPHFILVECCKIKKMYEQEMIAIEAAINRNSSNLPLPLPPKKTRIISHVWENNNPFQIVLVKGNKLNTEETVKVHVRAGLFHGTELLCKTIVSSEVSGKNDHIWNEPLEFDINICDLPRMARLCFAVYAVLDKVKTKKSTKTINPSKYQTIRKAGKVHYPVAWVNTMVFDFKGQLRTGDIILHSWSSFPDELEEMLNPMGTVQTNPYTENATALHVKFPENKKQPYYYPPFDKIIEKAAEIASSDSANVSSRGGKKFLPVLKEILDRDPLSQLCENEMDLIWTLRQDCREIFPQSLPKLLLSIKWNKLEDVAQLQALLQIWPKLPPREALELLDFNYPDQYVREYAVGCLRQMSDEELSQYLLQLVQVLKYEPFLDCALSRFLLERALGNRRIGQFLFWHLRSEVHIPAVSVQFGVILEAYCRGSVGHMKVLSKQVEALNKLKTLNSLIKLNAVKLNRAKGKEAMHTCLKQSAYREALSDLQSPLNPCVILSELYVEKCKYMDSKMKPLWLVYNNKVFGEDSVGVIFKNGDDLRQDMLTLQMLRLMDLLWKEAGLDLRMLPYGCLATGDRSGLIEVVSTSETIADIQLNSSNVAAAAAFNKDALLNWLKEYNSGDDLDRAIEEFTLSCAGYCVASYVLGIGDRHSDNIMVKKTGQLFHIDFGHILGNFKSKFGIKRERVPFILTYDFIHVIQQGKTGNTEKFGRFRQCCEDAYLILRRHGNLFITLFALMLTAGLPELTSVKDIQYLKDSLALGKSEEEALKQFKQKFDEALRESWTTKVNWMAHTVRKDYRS
T2 sequence (P27986 322-600 partner limits assumed): as the sequence (P27986 322-600 partner limits assumed) above
Put plainly: Biochemical PI3K inhibition assay, p110β. An excerpt:
cDNA clones of PIK3CA, PIK3CB and PIK3CG were obtained from Origene (Rockville, MD, USA). PIK3CD was generously provided by Novartis Pharmaceuticals. The cDNA clones were sub-cloned into pFastBac His-Tag (Invitrogen, Carlsbad, CA, USA) and baculovirus clones were generated by the Bac-to-Bac expression system (Invitrogen). p110α, p110β and p110δ were co-expressed in Sf9 insect cells (Invitrogen) with a nSH2-iSH2 fragment of the regulatory subunit p85 comprising AA residues 322 to 600 [4]. p110γ was expressed without a regulatory subunit. Sf9 cells were lysed in a buffer containing 50 mM sodium phosphate, pH 8.0, 400 mM NaCl, 5% glycerol, 1% Triton X-100, 10 mM 2-mercaptoethanol, 1 mM orthovanadate, 10 mM imidazole, and sonicated on ice for 1 minute. Proteins were purified by adding Ni-NTA Superflow beads (Qiagen, Valencia, CA, USA) to the lysate and subsequent rolling for 30 min at 4°C. Beads were washed twice with 50 mM phosphate buffer, pH 8.0, 0.5 M NaCl, 50 mM Imidazole, 2 mM DTT and eluted in the same buffer but with 200 mM imidazole. Purified PI3K's were mixed 1:1 with glycerol and stored at -20°C.
J-series inhibitors were dissolved, serial diluted in DMSO and deposited into 96 well plates at a final DMSO concentration of 1%. We used a novel assay to determine their potency and selectivity. In brief, micelles of 2.5 μg L-a-Phosphatidylinositol and 2.5 μg 1,2-Diacyl-sn-glycero-3-phospho-L-serine were formed by sonication, mixed with the individual PI3K isoforms and added to the drug dilutions in a reaction buffer containing 10 mM HEPES, 25 mM NaCl, 0.125 μg/μl BSA, and 2 mM BME (final concentrations). Reactions were timed after the addition of 10 μM ATP with 40 μCi/ml γ-32P-ATP (PerkinElmer, Waltham, MA, USA) and 2 mM MgCl2 (all final concentrations). The reactions were terminated after two hours by the addition of 2 N HCl and the lipids extracted with 1:1 MetOH/Chloroform. Radio-labeled phosphatidyl-inositol-3-phosphate in the extracted organic fraction was quantified after the addition of Microscint O (PerkinElmer) using a TopCount 96 well plate scintillation counter (PerkinElmer). IC50 concentrations and inhibition curves were calculated using Prism 5 (GraphPad Software, La Jolla, CA).

Some results are limits rather than exact numbers.

Consider `CCN(/N=C/c1cnc2ccc(Br)cn12)S(=O)(=O)c1cc([N+](=O)[O-])c(NC(=O)C(F)(F)F)cc1C` [J124], for which the “metastatic lesions in the lungs” value in assay [1] is on record as “no lesions”. Moreover, in assay [1] (compared to vehicle), the “metastatic foci in the liver (histopathology)” value is listed as “few, if any, metastatic foci”; the “reduction in primary tumor burden in the spleen (real-time PCR)” value is recorded as ~ 50%; the “reduction of metastatic liver burden (real-time PCR)” value worked out at 13 fold. The compound also displayed a concentration for half-maximal inhibition (IC50) on p110α (10 μM ATP, two hours) of 11 nM. For the same compound, at p110α (compared to J32), the “increase of inhibitory activity for PI3Kα” value turned out to be 1.4 fold. Besides, the 50% inhibitory concentration (IC50) at p110β (10 μM ATP, two hours) was found to be 270 nM. For the same compound, the “selectivity against PI3Kβ” value on p110β (relative to PI3Kα) is > 20 fold.
